Measurements as given in US20260166162A1, “CARBON CHAIN SUBSTANCE FOR REGULATING TRANSMEMBRANE TRANSPORT AND FLUIDITY OF CELL MEMBRANES, AND PREPARATION AND USE THEREOF” (priority 2022, published 2026).
Several values for one entry are separate records, joined by “and”; a condition that tells them apart may be missing. Equal values may be shown once. Read-outs that look alike come from different tables or passages of the source.

What was measured:
[1] = tested on: 293T cells; experiment: Cellular phagocytosis of DiD-loaded lipid vesicles (nano-drugs) by 293T cells (Example II-51, Table II-29); type: cell-based; details: 293T cells pretreated 4 h, DiD lipid vesicles 2 h, n=3, untreated control 226.46 ± 1.26
[2] = tested on: Neocopyovirus; type: in vivo; details: 1 mM; n=3
[3] = tested on: Hela cells; experiment: Cell membrane fluidity (Laurdan fluorescence recovery) in Hela cells; type: cell-based
[4] = tested on: IL-6; experiment: Skin photoaging (UVB) in BALB/c nude mice, serum IL-6 (Example II-54, Table II-34); type: in vivo, mouse; details: serum, UVB-irradiated BALB/c nude mice, 40 days
[5] = tested on: TNF-α; experiment: Skin photoaging (UVB) in BALB/c nude mice, serum TNF-α (Example II-54, Table II-32); type: in vivo, mouse; details: UVB-irradiated BALB/c nude mice, 40 days
[6] = tested on: IL-1β; experiment: Skin photoaging (UVB) in BALB/c nude mice, serum IL-1β (Example II-54, Table II-33); type: in vivo, mouse; details: serum, UVB-irradiated BALB/c nude mice, 40 days
[7] = tested on: SARS-CoV-2 pseudovirus (B.1.526.2); type: cell-based
[8] = tested on: rabies pseudovirus; type: cell-based
[9] = tested on: HPV pseudovirus (HPV6-GFP); type: cell-based; details: 293FT cells pretreated 4 h, n=3

CCCCCCCC(=O)O [n-octanoic acid]
Fluorescence intensity ([1]; 2 nM): 157.30
Fluorescence intensity ([1]; 5 nM): 108.56
Fluorescence intensity ([1]; 10 nM): 83.70
Fluorescence intensity ([1]; 50 nM): 76.25
Fluorescence intensity ([1]; 100 nM): 106.35
Fluorescence intensity ([1]; 1 uM): 141.79
Fluorescence intensity ([1]; 10 uM): 124.85
Fluorescence intensity ([1]; 50 uM): 64.86
Fluorescence intensity ([1]; 100 uM): 36.35 ± 6.23
Fluorescence intensity [2]: 5.8 ± 0.76
Fluorescence recovery rate % ([3]; 2 nM, 20 s): 65.57%
Fluorescence recovery rate % ([3]; 2 nM, 40 s): 66.78%
Fluorescence recovery rate % ([3]; 2 nM, 60 s): 66.54%
Fluorescence recovery rate % ([3]; 2 nM, 80 s): 67.22%
Fluorescence recovery rate % ([3]; 5 nM, 20 s): 66.75%
Fluorescence recovery rate % ([3]; 5 nM, 40 s): 67.05%
Fluorescence recovery rate % ([3]; 5 nM, 60 s): 67.59%
Fluorescence recovery rate % ([3]; 5 nM, 80 s): 66.98%
Fluorescence recovery rate % ([3]; 10 nM, 20 s): 64.02%
Fluorescence recovery rate % ([3]; 10 nM, 40 s): 65.23%
Fluorescence recovery rate % ([3]; 10 nM, 60 s): 65.45%
Fluorescence recovery rate % ([3]; 10 nM, 80 s): 66.51%
Fluorescence recovery rate % ([3]; 50 nM, 20 s): 67.32%
Fluorescence recovery rate % ([3]; 50 nM, 40 s): 67.94%
Fluorescence recovery rate % ([3]; 50 nM, 60 s): 68.02%
Fluorescence recovery rate % ([3]; 50 nM, 80 s): 68.65%
Fluorescence recovery rate % ([3]; 50 μM, 20 s): 64.31%
Fluorescence recovery rate % ([3]; 50 μM, 40 s): 69.09%
Fluorescence recovery rate % ([3]; 50 μM, 60 s): 73.41%
Fluorescence recovery rate % ([3]; 50 μM, 80 s): 78.32%
Fluorescence recovery rate % ([3]; 100 μM, 20 s): 66.15%
Fluorescence recovery rate % ([3]; 100 μM, 40 s): 71.58%
Fluorescence recovery rate % ([3]; 100 μM, 60 s): 75.11%
Fluorescence recovery rate % ([3]; 100 μM, 80 s): 79.84%

Ascorbic acid-eicosapentaenoic acid
Fluorescence intensity [2]: 2.9 ± 0.68

CCC=CCC=CCC=CCCCCCCCC(=O)OCC(N)C(=O)O (stereo not drawn) [Ser-linolenic acid]
IL-6 ([4]; 30 μM smeared): 29 pg/mL
IL-6 ([4]; 50 μM smeared): 33 pg/mL
IL-6 ([4]; 100 μM smeared): 31 pg/mL
TNF-α ([5]; 30 μM smeared): 51 pg/mL
TNF-α ([5]; 50 μM smeared): 49 pg/mL
TNF-α ([5]; 100 μM smeared): 47 pg/mL
IL-1β ([6]; 30 μM smeared): 62 pg/mL
IL-1β ([6]; 50 μM smeared): 53 pg/mL
IL-1β ([6]; 100 μM smeared): 58 pg/mL

CCC=CCC=CCC=CCC=CCC=CCCCC(=O)OCC(N)C(=O)O (stereo not drawn) [Serine-EPA]
Fluorescence intensity [2]: 4.8 ± 0.96

Glucosamine-docosahexaenoic acid
Fluorescence intensity [2]: 3.1 ± 0.65

CCCCCC=CCC=CCCCCCCCC(=O)OCC(N)C(=O)O (stereo not drawn) [Serine-LA]
Fluorescence intensity ([1]; 2 nM): 89.36 ± 0.21
Fluorescence intensity ([1]; 5 nM): 46.06 ± 0.02
Fluorescence intensity ([1]; 10 nM): 49.05 ± 0.22
Fluorescence intensity ([1]; 50 nM): 51.34 ± 0.32
Fluorescence intensity ([1]; 100 nM): 59.65 ± 0.54
Fluorescence intensity ([1]; 1 uM): 458.20 ± 0.55
Fluorescence intensity ([1]; 10 uM): 103.58 ± 0.71
Fluorescence intensity ([1]; 50 uM): 110.15 ± 0.41
Fluorescence intensity ([1]; 100 uM): 14.31 ± 0.13
Inhibition rate (%) ([7]; 2 nM, n=3): 60.54 ± 5.59%
Inhibition rate (%) ([7]; 5 nM, n=3): 79.66 ± 5.97%
Inhibition rate (%) ([7]; 10 nM, n=3): 78.34 ± 4.87%
Inhibition rate (%) ([7]; 50 nM, n=3): 77.33 ± 4.56%
Inhibition rate (%) ([7]; 100 nM, n=3): 73.66 ± 1.33%
Inhibition rate (%) ([7]; 1 μM, n=3): -102.33 ± 4.36%
Inhibition rate (%) ([7]; 10 μM, n=3): 54.26 ± 0.53%
Inhibition rate (%) ([7]; 50 μM, n=3): 51.36 ± 0.87%
Inhibition rate (%) ([7]; 100 μM, n=3): 93.68 ± 0.73%
Fluorescence intensity [2]: 2.8 ± 0.56

O=C(O)CCCCCCC(=O)O [octanedioic acid]
Fluorescence intensity ([1]; 2 nM): 108.61 ± 5.68
Fluorescence intensity ([1]; 5 nM): 68.71 ± 4.36
Fluorescence intensity ([1]; 10 nM): 68.98 ± 8.56
Fluorescence intensity ([1]; 50 nM): 50.66 ± 5.66
Fluorescence intensity ([1]; 100 nM): 44.30 ± 6.35
Fluorescence intensity ([1]; 1 uM): 215.30 ± 5.36
Fluorescence intensity ([1]; 10 uM): 349.34 ± 9.48
Fluorescence intensity ([1]; 50 uM): 21.83 ± 1.85
Fluorescence intensity ([1]; 100 uM): 2.79 ± 0.22
Fluorescence intensity [2]: 2.9 ± 0.22
Fluorescence recovery rate % ([3]; 2 nM, 20 s): 63.58%
Fluorescence recovery rate % ([3]; 2 nM, 40 s): 64.25%
Fluorescence recovery rate % ([3]; 2 nM, 60 s): 65.77%
Fluorescence recovery rate % ([3]; 2 nM, 80 s): 65.12%
Fluorescence recovery rate % ([3]; 5 nM, 20 s): 64.56%
Fluorescence recovery rate % ([3]; 5 nM, 40 s): 64.88%
Fluorescence recovery rate % ([3]; 5 nM, 60 s): 64.78%
Fluorescence recovery rate % ([3]; 5 nM, 80 s): 65.09%
Fluorescence recovery rate % ([3]; 10 nM, 20 s): 63.99%
Fluorescence recovery rate % ([3]; 10 nM, 40 s): 64.23%
Fluorescence recovery rate % ([3]; 10 nM, 60 s): 64.45%
Fluorescence recovery rate % ([3]; 10 nM, 80 s): 64.66%
Fluorescence recovery rate % ([3]; 50 nM, 20 s): 66.09%
Fluorescence recovery rate % ([3]; 50 nM, 40 s): 66.42%
Fluorescence recovery rate % ([3]; 50 nM, 60 s): 66.89%
Fluorescence recovery rate % ([3]; 50 nM, 80 s): 67.94%
Fluorescence recovery rate % ([3]; 50 μM, 20 s): 64.41%
Fluorescence recovery rate % ([3]; 50 μM, 40 s): 70.05%
Fluorescence recovery rate % ([3]; 50 μM, 60 s): 74.65%
Fluorescence recovery rate % ([3]; 50 μM, 80 s): 80.36%
Fluorescence recovery rate % ([3]; 100 μM, 20 s): 65.77%
Fluorescence recovery rate % ([3]; 100 μM, 40 s): 71.36%
Fluorescence recovery rate % ([3]; 100 μM, 60 s): 76.81%
Fluorescence recovery rate % ([3]; 100 μM, 80 s): 79.79%

Glucose-oleic acid
Inhibition rate (%) ([8]; 0.002 µM): 50.11 ± 3.11%
Inhibition rate (%) ([8]; 0.005 µM): 65.69 ± 6.69%
Inhibition rate (%) ([8]; 0.01 µM): 80.35 ± 2.06%
Inhibition rate (%) ([8]; 0.05 µM): 72.37 ± 3.37%
Inhibition rate (%) ([8]; 0.1 µM): 71.05 ± 2.54%
Inhibition rate (%) ([8]; 1 µM): -14.84 ± 1.54%
Inhibition rate (%) ([8]; 10 µM): -33.5 ± 2.54%
Inhibition rate (%) ([8]; 50 µM): 70.04 ± 5.07%
Inhibition rate (%) ([8]; 100 µM): 80.21 ± 5.30%
Fluorescence intensity ([1]; 2 nM): 102.16 ± 8.65
Fluorescence intensity ([1]; 5 nM): 92.37 ± 4.56
Fluorescence intensity ([1]; 10 nM): 65.99 ± 6.23
Fluorescence intensity ([1]; 100 nM): 71.02 ± 4.02
Fluorescence intensity ([1]; 1 uM): 436.71 ± 15.66
Fluorescence intensity ([1]; 10 uM): 216.29 ± 5.24
Fluorescence intensity ([1]; 50 uM): 42.89 ± 2.32
Fluorescence intensity ([1]; 100 uM): 26.41 ± 5.32

CC/C=C\C/C=C\C/C=C\C/C=C\C/C=C\C/C=C\CCC(=O)OCC(O)C1OC(=O)C(O)=C1O (stereo not drawn) [Ascorbic Acid-DHA]
Inhibition rate (%) ([8]; 2 nM, n=3): 51.40 ± 1.54%
Inhibition rate (%) ([8]; 5 nM, n=3): 51.99 ± 3.99%
Inhibition rate (%) ([8]; 10 nM, n=3): 64.84 ± 6.57%
Inhibition rate (%) ([8]; 50 nM, n=3): 70.88 ± 4.22%
Inhibition rate (%) ([8]; 100 nM, n=3): 79.06 ± 2.39%
Inhibition rate (%) ([8]; 1 μM, n=3): 14.83 ± 4.26%
Inhibition rate (%) ([8]; 10 μM, n=3): 34.88 ± 5.99%
Inhibition rate (%) ([8]; 50 μM, n=3): 95.55 ± 6.98%
Inhibition rate (%) ([8]; 100 μM, n=3): 99.08 ± 6.36%
Fluorescence intensity ([1]; 2 nM): 98.37 ± 7.89
Fluorescence intensity ([1]; 5 nM): 92.26 ± 8.23
Fluorescence intensity ([1]; 10 nM): 69.70 ± 4.55
Fluorescence intensity ([1]; 50 nM): 73.98 ± 5.36
Fluorescence intensity ([1]; 100 nM): 243.38 ± 11.00
Fluorescence intensity ([1]; 1 uM): 253.70 ± 10.23
Fluorescence intensity ([1]; 10 uM): 58.97 ± 1.55
Fluorescence intensity ([1]; 50 uM): 39.02 ± 1.03
Fluorescence intensity ([1]; 100 uM): 19.86 ± 0.23

Adenosine-erucic acid [Adenosine-C22-1]
Fluorescence intensity ([1]; 2 nM): 112.01 ± 8.24 and 99.55 ± 5.66
Fluorescence intensity ([1]; 5 nM): 89.09 ± 4.19 and 46.06 ± 5.06
Fluorescence intensity ([1]; 1 uM): 278.16 ± 8.15 and 299.00 ± 23.21
Fluorescence intensity ([1]; 10 uM): 326.69 ± 10.13 and 171.00 ± 14.23
Inhibition rate (%) ([7]; 0.002 µM): 50.54 ± 1.57%
Inhibition rate (%) ([7]; 0.005 µM): 60.66 ± 1.59%
Inhibition rate (%) ([7]; 0.01 µM): 58.34 ± 1.25%
Inhibition rate (%) ([7]; 0.05 µM): 57.33 ± 1.58%
Inhibition rate (%) ([7]; 0.1 µM): 64.66 ± 8.23%
Inhibition rate (%) ([7]; 1 µM): -22.83 ± 0.93%
Inhibition rate (%) ([7]; 10 µM): -44.26 ± 1.26%
Inhibition rate (%) ([7]; 50 µM): 81.44 ± 0.54%
Inhibition rate (%) ([7]; 100 µM): 90.08 ± 1.21%
Inhibition rate (%) ([9]; 2 nM): 80.11 ± 3.66%
Inhibition rate (%) ([9]; 5 nM): 85.69 ± 4.23%
Inhibition rate (%) ([9]; 10 nM): 90.35 ± 4.69%
Inhibition rate (%) ([9]; 50 nM): 92.37 ± 3.35%
Inhibition rate (%) ([9]; 100 nM): 94.75 ± 1.67%
Inhibition rate (%) ([9]; 1 μM): 32.83 ± 2.37%
Inhibition rate (%) ([9]; 10 μM): 54.26 ± 1.83%
Inhibition rate (%) ([9]; 50 μM): 91.84 ± 3.95%
Inhibition rate (%) ([9]; 100 μM, negative value = promotes infection): 94.11 ± 2.69%
